Assay results reported in US11407819B2, “Compositions and use of a fibrinogen binding motif present in EFB and COA for therapeutics and vaccines against Staphylococcus aureus” (priority 2013, dated 2022).
Entries after “also recorded” stand apart in the source; their conditions may differ.

Key:
[1] = biological target: T1, rEfb-N binding to Fg (Homo sapiens, UniProt P02671+P02675+P02679); assay: Competition ELISA, peptide inhibition of rEfb-N (Efb 30-104) binding to Fg; settings: increasing concentration of peptides; 2 nM GST fusion protein
T1 construct: full-length human Fibrinogen (diluted in PBS, Enzyme research); purchased Enzyme research; host or cells: Efb probe made in E. coli
T1 sequence (P02671 20-629 limits assumed): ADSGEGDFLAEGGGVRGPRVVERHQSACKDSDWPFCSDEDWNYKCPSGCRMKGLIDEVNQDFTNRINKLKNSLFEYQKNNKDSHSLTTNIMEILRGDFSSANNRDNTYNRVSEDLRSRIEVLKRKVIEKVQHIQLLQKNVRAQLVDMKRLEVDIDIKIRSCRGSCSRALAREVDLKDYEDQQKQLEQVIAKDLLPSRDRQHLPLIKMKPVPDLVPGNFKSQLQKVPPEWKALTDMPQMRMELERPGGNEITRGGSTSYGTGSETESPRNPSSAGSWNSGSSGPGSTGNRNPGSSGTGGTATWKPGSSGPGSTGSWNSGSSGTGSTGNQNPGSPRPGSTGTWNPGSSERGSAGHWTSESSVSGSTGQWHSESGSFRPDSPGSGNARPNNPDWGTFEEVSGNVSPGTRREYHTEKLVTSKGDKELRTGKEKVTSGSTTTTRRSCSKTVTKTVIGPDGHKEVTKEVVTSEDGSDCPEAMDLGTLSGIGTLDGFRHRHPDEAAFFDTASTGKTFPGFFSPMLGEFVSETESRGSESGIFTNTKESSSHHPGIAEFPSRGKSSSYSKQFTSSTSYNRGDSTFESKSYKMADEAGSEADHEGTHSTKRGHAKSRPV
T1 sequence (P02675 31-491): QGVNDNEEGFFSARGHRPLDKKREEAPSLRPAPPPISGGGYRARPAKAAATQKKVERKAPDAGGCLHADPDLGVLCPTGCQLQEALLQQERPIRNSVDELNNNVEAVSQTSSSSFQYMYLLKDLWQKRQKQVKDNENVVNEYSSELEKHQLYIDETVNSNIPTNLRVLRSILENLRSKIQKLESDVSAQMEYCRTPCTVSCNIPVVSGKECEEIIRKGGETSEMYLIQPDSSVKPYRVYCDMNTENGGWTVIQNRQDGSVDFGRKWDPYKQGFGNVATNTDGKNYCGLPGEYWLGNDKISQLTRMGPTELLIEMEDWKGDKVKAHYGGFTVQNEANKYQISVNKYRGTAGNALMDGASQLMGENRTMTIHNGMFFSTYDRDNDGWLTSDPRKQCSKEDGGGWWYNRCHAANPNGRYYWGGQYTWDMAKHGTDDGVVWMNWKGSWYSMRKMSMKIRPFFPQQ
T1 sequence (P02679 27-453): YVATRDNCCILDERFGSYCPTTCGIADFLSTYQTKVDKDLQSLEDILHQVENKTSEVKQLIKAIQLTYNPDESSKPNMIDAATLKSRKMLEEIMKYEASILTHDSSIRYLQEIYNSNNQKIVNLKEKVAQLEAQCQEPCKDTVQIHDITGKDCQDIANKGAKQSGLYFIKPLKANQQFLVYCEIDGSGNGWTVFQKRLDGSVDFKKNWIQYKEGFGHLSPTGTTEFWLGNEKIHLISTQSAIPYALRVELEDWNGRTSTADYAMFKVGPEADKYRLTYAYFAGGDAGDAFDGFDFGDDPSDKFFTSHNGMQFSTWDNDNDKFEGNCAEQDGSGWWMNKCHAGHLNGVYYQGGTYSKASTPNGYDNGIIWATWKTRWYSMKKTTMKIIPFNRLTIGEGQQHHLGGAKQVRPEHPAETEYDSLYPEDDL
Excerpt: Coa-F contains an Efb like fibrinogen binding motif. FIG. 11A is an image of a ClustalW alignment of amino acid sequence from Efb-O (Efb 68-98) and Coa from Newman strain (col-Newman). Sequence similarity was identified at Coa 474-505. Bold letters denote conserved residues and underlined letters represent similar residues. FIGS. 11B and 11C show a comparison of amino acid sequence of Efb-O with Coa 474-505 (FIG. 11B) and Coa 506-532 (FIG. 11C). Large letters in Efb-O indicate the residues important for Fg binding. The red letters show the identical residues and the yellow letters indicate the similar residues. […] Increasing concentration of Coa peptides was incubated with 2 nM GST fusion proteins in Fg-coated microtiter wells. Closed square, sCoa-O; closed circle, sCoa-RI; closed triangle, sEfb-O.
A peptide was synthesized that corresponds to the Coa-O sequence (sCoa-O) and determined its Fg binding activity in a competition ELISA. Microtiter wells were coated with Fg and binding of the recombinant N-terminal segment of Efb (rEfb-N), that harbors the two Fg binding sites, was quantitated in the presence of increasing concentration of different synthetic peptides.
In the case of peptide inhibition assay, various concentration of Efb or Coa peptides were mixed with a fixed concentration of Coa-GST or Efb-GST fusion proteins (5-10 nM) in TBS and the bound GST fusion proteins were detected through incubation with HRP-conjugated rabbit anti-GST polyclonal antibodies (5000× dilution). All proteins were diluted in TBS containing 1% BSA and 0.05% TWEEN® 20 and the ELISA assays were carried out at room temperature.

[2] = system: THP-1 cells; assay: THP-1 cell adherence to immobilized Fg; format: cell-based; settings: for inhibition of THP-1 adherence to immobilized Fg: M1/70 20 μg/ml, rEfb 0.2 μM, rCoa 0.5 μM, peptides 0.5 μM each
Method: Cell adherence assay using cell lines—A monocytic cell line THP-1 cell stably expressing αMβ2 was maintained in RPMI1640 supplemented with 10% fetal bovine serum, […] L-glutamine, 100 units/ml penicillin and 100 μg/ml streptomycin. Prior to use, cells were harvested by centrifuge, washed and suspended in RPMI 1640/1% human serum albumin. For cell adherence assays, 48-well plates were coated with 200 μl of Fibrinogen (10 μg/ml) overnight at 4° C. followed by 1 hour at 37° C. before blocking with 1% Polyvinylpyrrolidone (PVP 3600 kDa) for 45 minutes at 37° C. Subsequently, the cells were seeded 2×10^5/well in the presence or absence of Coa or Efb recombinant proteins or peptides and incubated at 37° C. for 25 minutes. Non-adherent cells were removed by washing gently three times with PBS/1% BSA. Adherent cells were quantitated with CyQuant kit according to the manufacturer's manual.

| Substance | inhibition of rEfb-N binding to Fg [1] | inhibition of THP-1 adherence to immobilized Fg [2] | reversal of inhibition of THP-1 adherence elicited by rEfb or rCoa ([2]; peptide 50 μM preincubated with rEfb (0.2 μM) or rCoa (0.2 μM)) |
| --- | --- | --- | --- |
| sCoa-RI: synthetic peptide, first 27 residues of repeat region, Coa 506-532 (ETNAYNVTTHANGQVSYGARPTYKKPS) | effectively inhibited rEfb-N binding to Fg; also recorded: somewhat more effective inhibitor than sCoa-O | did not inhibit THP-1 adherence |  |
| sEfb-O: synthetic peptide mimicking the high affinity Fg-binding motif in Efb (Efb 68-98) (KYIKFKHDYNILEFNDGTFEYGARPQFN) | potently inhibited rEfb-N binding to the Fg surface; also recorded: effectively inhibited rEfb-N binding to Fg | did not inhibit THP-1 adherence | reverses the inhibitory activities |
